In patent publication US20120264684A1, “Glycosylated Form of Antigenic GLP-1 Analogue” (priority 2009, published 2012):
Entries after “also recorded” stand apart in the source; their conditions may differ.

Key:
C57BL/6JJcl mice [1] = assay: Oral glucose tolerance test (OGTT) of oligosaccharide chain added exendin-4; assay type: in vivo; details: 0.9 nmol/10 ml PBS, 10 ml/kg i.p., 30 minutes before oral glucose 1 mg/g, fasted C57BL/6JJcl mice, GLP-1 at 9 nmol/10 ml
Experimental: (§1) Blood glucose suppressing activity by OGTT can be determined by measuring blood glucose elevation suppression when mice are force-fed sugar. For example, first, a test compound is administered to mice fasted overnight, and glucose solution is orally administered 30 minutes later. Blood glucose in mice will rise from the administration of glucose, reach maximum at about 30 minutes after administration, and then slowly decrease. The blood glucose suppressing action of the oligosaccharide, chain added antigenic GLP-1 analogue can be evaluated by measuring blood glucose 30 minutes after administration of glucose, and comparing it to blood glucose when non-oligosaccharide chain added antigenic GLP-1 analogue is administered. […] Orbital blood was collected before administration of glucose, as well as 30 minutes, 60 minutes, and 120 minutes after administration of glucose, and blood glucose was measured using Accu-Chek Aviva (Roche Diagnostics). Similarly, non-oligosaccharide chain added liraglutide was also administered to db/db mice, blood glucose was measured over time, and compared to the action of position 30 Cys-disialooligosaccharide chain added liraglutide.

[2] = tested on: BKS.Cg-+Leprdb/+Leprdb/Jc1 mice; assay: Blood glucose lowering action of oligosaccharide chain added exendin-4 using db/db mice; assay type: in vivo; details: for blood glucose lowering action in db/db mice: 9 mmol/10 mL PBS, 10 mL/kg i.p., blood glucose at 30, 60, 120, 240 minutes
Experimental: (§2) Blood glucose suppressing activity using db/db mice can be determined by measuring blood glucose after administration of a test compound to diabetic mice. Blood glucose after administration of the test compound is measured over time, and if for example, blood glucose 120 minutes after administration is lower than at the time of administration, blood glucose lowering action can be confirmed. For example, sustainability of blood glucose lowering action can also be determined by measuring blood glucose 300 minutes after administration.
A PBS solution of position 30 Cys-disialooligosaccharide chain added exendin-4 synthesized in Example 1 ([…]/10 mL) was intraperitoneally administered to BKS.Cg-+Leprdb/+Leprdb/Jc1 mice (10 weeks old, male) at an administration dosage of 10 mL/kg. Orbital blood was collected before administration of the compound, as well as 30 minutes, 60 minutes, 120 minutes, and 240 minutes later, and blood glucose was measured using Accu-Chek Aviva (Roche Diagnostics).
Blood glucose lowering action was compared with non-oligosaccharide chain added exendin-4 synthesized in Comparative Example 1.

albumin = albumin (Homo sapiens, UniProt P02768); details: background art; cited from earlier work
[3] = tested on: BKS.Cg-+Leprdb/+Leprdb/Jc1 mice (db/db mice); assay: Blood glucose lowering action of oligosaccharide chain added liraglutide using db/db mice; assay type: in vivo; details: for blood glucose lowering action in db/db mice: 9 nmol/10 mL PBS, 10 mL/kg i.p., blood glucose at 30 to 720 minutes
Experimental: as §2, with “administration. […] Orbital blood was collected before administration of the compound, as well as 30 minutes, 60 minutes, 120 minutes, 240 minutes, 480 minutes, and 720 minutes later, and blood glucose was measured using Accu-Chek Aviva (Roche Diagnostics). Similarly, non-oligosaccharide chain added liraglutide was also administered to db/db mice, blood glucose was measured over time, and compared to the action of position 30 Cys-disialooligosaccharide chain added liraglutide.” for “administration.”

C57BL/6JJcl mice [4] = assay: Oral glucose tolerance test (OGTT) of oligosaccharide chain added liraglutide; assay type: in vivo; details: 9 nmol/10 ml PBS, 10 ml/kg i.p., 30 minutes before oral glucose 1 mg/g, fasted C57BL/6JJcl mice
Experimental: as §1, with “Diagnostics).” for “Diagnostics). Similarly, non-oligosaccharide chain added liraglutide was also administered to db/db mice, blood glucose was measured over time, and compared to the action of position 30 Cys-disialooligosaccharide chain added liraglutide.”

balb/c mice = details: mouse, in vivo
Source text: The effect of glycosylation on the antigenicity of exendin was verified by sensitizing mice with non-oligosaccharide chain added exendin-4 or position 30 Cys-disialooligosaccharide chain added exendin-4, and comparing blood anti-exendin-4 antibody concentrations.
As priming immunization, position 30 Cys-disialooligosaccharide chain added exendin-4 synthesized in Example 1 and non-oligosaccharide chain added exendin-4 (American Peptide Company) were mixed well with Complete Freund's adjuvant (Difco Laboratories) to make emulsions, and intraperitoneally administered to balb/c mice (female, 7 weeks old). […]
Plasma was collected from mice seven days after the boost immunization. The anti-exendin-4 antibody concentration in plasma was measured by Enzyme-Linked immunosorbent assay (ELISA) using commercially available anti-exendin-4 antibody (Antibodyshop) as the standard.
Fifty μg of non-oligosaccharide chain added exendin-4 was added to a 96-well ELISA plate, and incubated at 37° C. for 2 hours. […] The color development reaction was terminated by adding 20% SDS, and absorption at 405 nm was measured. The concentration of anti-exendin-4 antibody was determined using anti-exendin-4 monoclonal antibody as the standard.

[5] = stated with the db/db mice test
[6] = listed as Oligosaccharide chain added liraglutide
[7] = listed as Position 30 Cys-disialooligosaccharide chain added liraglutide
[8] = listed as Oligosaccharide chain added exendin-4

Sequence of albumin (P02768 25-609): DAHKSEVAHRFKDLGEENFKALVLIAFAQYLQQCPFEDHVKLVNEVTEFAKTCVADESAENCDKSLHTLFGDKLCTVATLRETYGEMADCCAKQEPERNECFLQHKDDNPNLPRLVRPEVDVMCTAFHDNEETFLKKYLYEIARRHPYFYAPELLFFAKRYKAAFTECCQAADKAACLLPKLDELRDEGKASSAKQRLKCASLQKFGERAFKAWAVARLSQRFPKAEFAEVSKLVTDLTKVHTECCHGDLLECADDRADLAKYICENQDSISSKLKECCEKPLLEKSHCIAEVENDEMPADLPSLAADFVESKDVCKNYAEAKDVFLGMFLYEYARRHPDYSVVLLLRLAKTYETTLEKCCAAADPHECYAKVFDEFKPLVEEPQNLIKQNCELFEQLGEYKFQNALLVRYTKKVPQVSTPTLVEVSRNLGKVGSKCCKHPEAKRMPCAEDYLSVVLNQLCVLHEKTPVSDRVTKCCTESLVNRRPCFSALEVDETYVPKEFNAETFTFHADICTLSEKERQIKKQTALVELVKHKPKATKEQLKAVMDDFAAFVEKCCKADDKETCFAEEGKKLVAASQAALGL

Exendin-4
blood glucose elevation suppressive action (OGTT) (C57BL/6JJcl mice [1]): blood glucose elevation suppressive action higher than vehicle (PBS only) and GLP-1 | blood glucose lowering action in db/db mice [2]: strong blood glucose lowering action 30 minutes after administration | duration of blood glucose lowering effect in db/db mice ([2]; i.p., 10 mL/kg, last sampling 240 minutes): 240 min | blood stability [2, 5]: high blood stability

CCCCCCCCCCCCCCCC(=O)N[C@@H](CCC(=O)NCCCC[C@H](NC(=O)[C@H](C)NC(=O)[C@H](C)NC(=O)[C@H](CCC(N)=O)NC(=O)CNC(=O)[C@H](CCC(=O)O)NC(=O)[C@H](CC(C)C)NC(=O)[C@H](Cc1ccc(O)cc1)NC(=O)[C@H](CO)NC(=O)[C@H](CO)NC(=O)[C@@H](NC(=O)[C@H](CC(=O)O)NC(=O)[C@H](CO)NC(=O)[C@@H](NC(=O)[C@H](Cc1ccccc1)NC(=O)[C@@H](NC(=O)CNC(=O)[C@H](CCC(=O)O)NC(=O)[C@H](C)NC(=O)[C@@H](N)Cc1cnc[nH]1)[C@@H](C)O)[C@@H](C)O)C(C)C)C(=O)N[C@@H](CCC(=O)O)C(=O)N[C@@H](Cc1ccccc1)C(=O)N[C@H](C(=O)N[C@@H](C)C(=O)N[C@@H](Cc1c[nH]c2ccccc12)C(=O)N[C@@H](CC(C)C)C(=O)N[C@H](C(=O)N[C@@H](CCCNC(=N)N)C(=O)NCC(=O)N[C@@H](CCCNC(=N)N)C(=O)NCC(=O)O)C(C)C)[C@@H](C)CC)C(=O)O [Liraglutide]
administered amount that binds to albumin (albumin): about 99%

Position 30 Cys-DisialoOligosaccharide Chain Added Liraglutide
blood glucose lowering action in db/db mice [3, 6]: blood glucose lowering action and sustainability equal to non-oligosaccharide chain added liraglutide | blood glucose lowering action in db/db mice [3, 7]: strong blood glucose lowering action 30 minutes after administration; also recorded: blood glucose lowering action and sustainability equal to non-oligosaccharide, chain added liraglutide | duration of blood glucose lowering effect in db/db mice ([3]; i.p., 10 mL/kg, last sampling 720 minutes): 12 h | blood stability [3, 5]: high blood stability | blood glucose elevation suppressive action (OGTT) (C57BL/6JJcl mice [4]): even higher blood glucose elevation suppressive action compared to non-oligosaccharide chain added liraglutide | blood glucose elevation suppressive action (OGTT) (C57BL/6JJcl mice [4]; [6]): blood glucose elevation suppressive action even higher than non-oligosaccharide chain added liraglutide | blood glucose elevation suppressive action (OGTT) (C57BL/6JJcl mice [4]; [7]): blood glucose elevation suppressive action higher than vehicle (PBS only) and GLP-1

Position 30 Cys-DisialoOligosaccharide Chain Added Exendin-4
blood glucose elevation suppressive action (OGTT) (C57BL/6JJcl mice [1]; [8]): blood glucose elevation suppressive action equal to non-oligosaccharide chain added exendin-4 | plasma anti-exendin-4 antibody concentration / antibody titer compared to non-oligosaccharide chain added exendin-4 (balb/c mice): about one-quarter | blood glucose lowering action in db/db mice [2, 8]: string blood glucose lowering action equal to non-oligosaccharide chain added exendin-4 | blood glucose lowering action in db/db mice ([2]; listed as Position 30 Cys-disialooligosaccharide chain added exendin-4): blood glucose lowering action and sustainability equal to non-oligosaccharide chain added exendin-4
